This note sets out measurements from patent US20040035690A1, “Method and apparatus for chemical and biochemical reactions using photo-generated reagents” (The Regents Of The University Of Michigan, priority 1998, published 2004).

Test [1] deals with mouse MAb DO-1. In words: Oligopeptide immunoassay with MAb DO-1 and FITC-tagged secondary antibody. The class given is binding. The note with it: hexapeptide microarray made with acid PGR, FITC-tagged rabbit anti-mouse IgG. How it is done:
Solid substrates comprising oligopeptids were washed with PBS (phosphate-buffered saline, 25 mM NaH2PO4, 125 mM NaCl, pH 7.4), PBST (PBS, 0.2% (V/V) Tween 20), and PBS, respectively. Next, the solid substrates were then incubated with mouse MAb DO-1, which recognizes amino acid residue 20-25 of human tumor suppressor protein p53, in PBS at room temperature for 2 h. After washing with PBST and PBS, samples were treated with FITC-tagged secondary rabbit anti-mouse immunoglobulin (IgG) overnight at 4° C. Following washing with PBST and PBS, fluorescence of the solid substrate was measured.

Test [2] is described as follows: Pb^2+ ion binding assay of oligopeptides on microarray (fluorescence). The note with it: peptide microarray made with acid PGR; lead chloride in buffer. As for the experimental part:
(§1) 5-dimethylaminonaphthalene-1-sulfonyl chloride (dansyl chloride, dns) generated fluorescence was also performed by contacting the solid substrate with a mixture of dns (1.25 mmol) and triethylamine (0.125 mmol) in DMF for 4 h at room temperature. The fluorescence detection was done in the same manner as previously described for FAM with the exception that the excitation wavelength was 365 nm.
For the Pb^2+ ion assay, solid substrates comprising oligopeptides were washed with a buffer solution containing 100 mM HEPES (pH 7.1) and 10% methanol. Samples were then treated with 0.1 mM lead chloride in buffer overnight at room temperature. After washing with buffer solution and methanol the solid substrates were left to dry in an inert atmosphere in the dark.

Test [3] can be described thus: As^3+ ion binding assay of oligopeptides on microarray (fluorescence). The note with it: peptide microarray made with acid PGR; NaAsO2. As for the experimental part: as §1
For the As^3+ ion assay, the assay was performed by the same procedure as the Pb^2+ assay but the buffer was 10 mM sodium acetate (pH 4.0) containing 100 mM NaCl and 0.1 mM sodium arsenite (NaAsO2) was the metal ion solution.

Entries after “also recorded” stand apart in the source; their conditions may differ. No end group written: not given here. dns = not defined here

With “DSLGKL: hexapeptide analogue of SDLHKL on the microarray (DSLHKL; printed: Asp-Ser-Leu-His-Lys-Leu)”, the “fluorescence labeling / fluorescence intensity on binding of MAb DO-1” value in test [1] is given as “fluorescence intensity is not detected”.

Consider “H2N-Glu-Glu-Glu-Glu (EEEE; printed: Glu-Glu-Glu-Glu) [tetrapeptide analogue on the microarray]”, for which the “fluorescence labeling / fluorescence intensity on Pb^2+ binding” value in test [2] is “increase is fluorescence is not observed”.

With “SDLHKL [hexapeptide, amino acid residue 20-25 of human p53 protein]”, the results for the “fluorescence labeling / fluorescence intensity on binding of MAb DO-1” value in test [1] and in test [1] (listed as SDLHKL) were “selective labeling” and “fluorescence intensity is detected”, respectively.

As for “SGLHKL [hexapeptide analogue of SDLHKL on the microarray]”, the “fluorescence labeling / fluorescence intensity on binding of MAb DO-1” value in test [1] is reported as “fluorescence intensity is not detected”.

As to dns-Cys-Cys-Cys-Cys, the “fluorescence labeling / fluorescence intensity on Pb^2+ binding” value in test [2] is “increase is fluorescence is not observed”.

As to dns-Glu-Cys-Glu-Glu, in test [2], the “fluorescence labeling / fluorescence intensity on Pb^2+ binding” value is “significant increase in fluorescence intensity; also recorded: selective labeling”.

With dns-Glu-Glu-Glu-Glu, in test [3], the “fluorescence labeling / fluorescence intensity on As^3+ binding” value was “fluoresence intensity is greatest; also recorded: selective labeling”.

As for “dns-Gly-Gly-Gly-Gly (dns-GGGG; reading uncertain; also: printed as dns-Gly-Gly-Gly-Gly) [das-Gly-Gly-Gly-Gly, dansyl-labeled tetrapeptide]”, the “fluorescence labeling / fluorescence intensity on Pb^2+ binding” value in test [2] was “increase is fluorescence is not observed”.
